Laboratory results reported in patent US20100291012A1, “ADMINISTRATION OF AMOROLFINE BY IONTOPHORESIS FOR TREATING NAIL DISEASES” (GALDERMA S.A., priority 2008, published 2010).
Where two headings read alike, the source gives them in different places.

Format: in vitro ADME
Details: for Nail (summary) / Receptor (summary) / Total nail (summary): 10 mM
Experimental: The donor solution in experiment 2 consisted of: 0.36% (10 mM) amorolfine HCl in an aqueous solution containing 50 mM NaCl and 0.4% Tween 80. The experiment was performed at pH 3.9 without further adjustment.
The donor solution in experiment 3 consisted of: 0.36% (10 mM) amorolfine HCl in an 40:60 (w:w) Tris buffer:ethanol. The Tris buffer contained 50 mM Tris and 50 mM NaCl at pH 7.4. The pH of the buffer:ethanol solution was ˜7.5. After addition of the drug the pH was ˜5.5.
The donor solution in experiments 4 and 5 consisted of: 1% (28 mM) amorolfine HCl in an 40:60 (w:w) Tris buffer:ethanol. The Tris buffer contained 50 mM Tris and 50 mM NaCl at pH 7.4. The pH of the buffer:ethanol solution was ˜7.5. After addition of the drug the pH was ˜4.7.
Receptor solution: pH 7.4 PBS containing 0.25% Tween 80 (same as Expt. 2).
Diffusion cells: 15 mm diameter Franz diffusion cells were used. The “nail assemblage” was placed in […] the donor and receptor chambers.
Nail device: A nail was glued […] two silicone rings with an internal orifice of 5 mm diameter.
The thickness of the nails was measured with a micrometer. Before hydration nail thickness in the periphery was measured in three places. The central part was not measured at this time to avoid any risk of breaking the nail. The nails were soaked overnight in 50 mM NaCl solution. Because of the increased flexibility of the nail after soaking, it was then possible to measure the thickness in the central part, upper part and lateral corner of the nail (Table 1):
Testing for leaks and iontophoretic circuit: Before starting the iontophoretic experiment, the absence of leaks was tested for each cell. The donor and receptor chambers were filled with donor (without drug) and receptor buffer, respectively, and a 0.1 mA current was passed. In the presence of leaks, the resistance of the circuit is low and the voltage needed to drive the current is very small (˜1V).
The voltages observed at the start of current passage decreased rapidly to settle at (˜30V after approximately 20 minutes.
Once the stability of the circuit with the three cells was assured, the donor compartment was filled with the drug solution and the current re-started.
The intensity of current was 0.1 mA, equivalent to 0.51 mA/cm^2 (area exposed=0.196 cm^2).
One sample was taken after 18 hours of iontophoresis for experiment 2 and 20 hours for experiments 3 and 4. The receptor was then refilled and a passive post-iontophoretic period of 4 hours elapsed before a second sample was obtained.
After recovery of the donor solution, the anode chamber was rinsed twice with ethanol to clean residual solution from the surface of the nail. Then, the nail was cut out of the silicone ring, weighed, dissolved in Soluene®, and assayed for radioactivity.
Experiment 5 is a passive control.

flux of amorolfine, comparison of experiments: higher flux
Nail (summary) (18 h, pH 3.9): 5.1 ± 4.3 nmol/mg
Receptor (summary) (18 h, pH 3.9): 2.4 ± 0.5 nmol
Total nail (summary) (18 h, pH 3.9): 38 ± 13 nmol
Nail (summary) (20 h): 3.2 ± 0.6 nmol/mg
Receptor (summary) (20 h): 1.7 ± 0.7 nmol
Total nail (summary) (20 h): 28 ± 3.6 nmol
SMILES: CCC(C)(C)c1ccc(CC(C)CN2C[C@@H](C)O[C@@H](C)C2)cc1 (stereo partly drawn) [Amorolfine, cis-4-[3-[4-(1,1-dimethylpropyl)phenyl]-2-methylpropyl]-2,6-dimethylmorpholine]
effect of iontophoresis on drug delivery into and through the nail: enhances drug delivery into and trough the nail
